# Data taken from US20100311759A1, “ANTIPARASITIC AGENT FOR FISH AND METHOD OF CONTROLLING PROLIFERATION OF FISH PARASITES” (NIPPON SUISAN KAISHA, LTD., priority 2007, published 2010).
# Tested on: Cryptocaryon irritans
# Experiment: Examples 3 and 4: oral administration of single inhibitors and a combination, body length of Cryptocaryon irritans on Pagrus major (FIG. 4)
# Format: in vivo
# Details: 60 mg/kg fish body weight/day for three days; 60 parasites per plot; P≦0.01
# Excerpt: During the rearing period, 1.4 liters/min. of seawater was supplied. […] After exposure, seven fish each were moved into six 100-liter aquariums. During the rearing period, 1.4 liters/min. of seawater was supplied.
row,Molecule,"growth rate of parasites (body length as percentage of control plot), difference from control plot"
1,"N=C(N)c1ccc(OCCCCCOc2ccc(C(=N)N)cc2)cc1.O=S(=O)(O)CCO.O=S(=O)(O)CCO [PMD, isethionic acid pentamidine salt]",statistically significant difference
2,CN(Cc1cnc2nc(N)nc(N)c2n1)c1ccc(C(=O)N[C@@H](CCC(=O)O)C(=O)O)cc1 [methotrexate],statistically significant difference
3,COc1cc(Cc2cnc(N)nc2N)cc(OC)c1OC [trimethoprim],statistically significant difference

# Same assay, conditions: 300 mg/kg fish body weight/day for three days; 60 parasites per plot; P≦0.01
row,Molecule,"growth rate of parasites (body length as percentage of control plot), difference from control plot"
1,COc1cc(NS(=O)(=O)c2ccc(N)cc2)nc(OC)n1 [sulfadimethoxine],statistically significant difference
2,Cc1ccnc(NS(=O)(=O)c2ccc(N)cc2)n1 [sulfamerazine],statistically significant difference
3,Cc1nnc(NS(=O)(=O)c2ccc(N)cc2)s1 [sulfamethizole],statistically significant difference
4,COc1cc(NS(=O)(=O)c2ccc(N)cc2)ncn1 [sulfamonomethoxine],statistically significant difference
5,Cc1cc(NS(=O)(=O)c2ccc(N)cc2)nc(C)n1 [sulfisomidine],statistically significant difference
6,sulfisozole,statistically significant difference

# Tested on: Cryptocaryon irritans
# Experiment: Example 1: oral administration against parasitism of Cryptocaryon irritans on Pagrus major (1)
# Details: 50 mg trimethoprim/kg body weight/day orally three days; three days after the exposure
row,Molecule,"number of parasites (left gills, FIG. 1, control plot = one)"
1,COc1cc(Cc2cnc(N)nc2N)cc(OC)c1OC [trimethoprim],tend to be large
